From patent US9101631B2, “Combination therapy based on SRC and aurora kinase inhibition for the treatment of cancer” (Georgetown University, priority 2008, dated 2015)
pIC50: −log10 of the molar value.

Tested on: HCT116 colorectal cancer cells
Experiment: In vitro viability-based synergy assay (CellTiter Blue), dasatinib and C1368 alone and in combination
Protocol: HCT116 cells were plated at 3000 cells/well concentration into 96 well plates. […] Cells were incubated for an additional 72 hours and cellular viability measurements were performed using CellTiter Blue assay (Promega). IC50 values were calculated using XLFit and CI values were calculated using Calcusyn (Biosoft).

SMILES | IC50 value, agent alone (HCT116 cells, 72 hours treatment, single agent) | pIC50 (Homo sapiens, HCT-116, 72 h, read-out: IC50 value, agent alone)
O=C(Nc1cccc(Nc2nccc(Nc3cccc(C(F)(F)F)c3)n2)c1)C1CC1 [C1368, Cyclopropanecarboxylic acid {3-[4-(3-trifluoromethyl-phenylamino)-pyrimidin-2-ylamino]-phenyl}-amide] | undeterminable | –
Cc1nc(Nc2ncc(C(=O)Nc3c(C)cccc3Cl)s2)cc(N2CCN(CCO)CC2)n1 [dasatinib] | – | 6.22
